Read-outs that look alike come from different tables or passages of the source.
What was measured:
[1] = test system: Amaranthus rudis (AMATA), tall water hemp; test: Postemergence herbicide evaluation, growth of Amaranthus rudis (AMATA); assay type: in vivo; details: Amaranthus tuberculatus, post-emergence, read-out: Ave. AMATA, percent reduction in plant size relative to the untreated control
[2] = test system: Ambrosia artemisiifolia (AMBEL), common ragweed; test: Postemergence herbicide evaluation, growth of Ambrosia artemisiifolia (AMBEL); assay type: in vivo; details: Ambrosia artemisiifolia, post-emergence, read-out: AVE. AMBEL, percent reduction in plant size relative to the untreated control
[3] = test system: Abutilon theophrasti (ABUTH), velvetleaf; test: Postemergence herbicide evaluation, growth of Abutilon theophrasti (ABUTH); assay type: in vivo; details: Abutilon theophrasti, post-emergence, read-out: AVE. ABUTH, percent reduction in plant size relative to the untreated control
[4] = test system: Chenopodium album (CHEAL), common lambsquarters; test: Postemergence herbicide evaluation, growth of Chenopodium album (CHEAL); assay type: in vivo; details: Chenopodium album, post-emergence, read-out: Ave. CHEAL, percent reduction in plant size relative to the untreated control
[5] = test system: glyphosate resistant Conyza canadensis (L.) (ERICA), horseweed; test: Postemergence herbicide evaluation, growth of Conyza canadensis (ERICA); assay type: in vivo; details: Erigeron canadensis, post-emergence, read-out: Ave. ERICA, percent reduction in plant size relative to the untreated control
[6] = Volatility of compounds measured by thermogravimetric analysis (TGA); assay type: physicochemical
[7] = test system: weeds ABUTH, AMATA, AMBEL, CHEAL, ERICA; test: Postemergence herbicide evaluation, overall average % weed control (ABUTH, AMATA, AMBEL, CHEAL, ERICA); assay type: in vivo; details: post-emergence, read-out: Overall Ave % Weed Control

## O=C(COc1ccc(Cl)cc1Cl)Nc1ccncc1 [Compound D1, 2-(2,4-Dichlorophenoxy)-N-(pyridin-4-yl)acetamide]
[1]; 168 h
  pest or weed control at 280 g/ha: 68%
  pest or weed control at 560 g/ha: 78%
[1]; 336 h
  pest or weed control at 280 g/ha: 75%
  pest or weed control at 560 g/ha: 85%
[1]; 504 h
  pest or weed control at 280 g/ha: 78%
  pest or weed control at 560 g/ha: 90%
[2]; 168 h
  pest or weed control at 280 g/ha: 60%
  pest or weed control at 560 g/ha: 65%
[2]; 336 h
  pest or weed control at 280 g/ha: 89%
  pest or weed control at 560 g/ha: 94%
[2]; 504 h
  pest or weed control at 280 g/ha: 78%
  pest or weed control at 560 g/ha: 99%
[3]; 168 h
  pest or weed control at 280 g/ha: 78%
  pest or weed control at 560 g/ha: 78%
[3]; 336 h
  pest or weed control at 280 g/ha: 88%
  pest or weed control at 560 g/ha: 80%
[3]; 504 h
  pest or weed control at 280 g/ha: 93%
  pest or weed control at 560 g/ha: 87%
[4]; 168 h
  pest or weed control at 280 g/ha: 68%
  pest or weed control at 560 g/ha: 75%
[4]; 336 h
  pest or weed control at 280 g/ha: 78%
  pest or weed control at 560 g/ha: 85%
[4]; 504 h
  pest or weed control at 280 g/ha: 97%
  pest or weed control at 560 g/ha: 93%
[5]; 168 h
  pest or weed control at 280 g/ha: 70%
  pest or weed control at 560 g/ha: 65%
[5]; 336 h
  pest or weed control at 280 g/ha: 88%
  pest or weed control at 560 g/ha: 90%
[5]; 504 h
  pest or weed control at 280 g/ha: 99%
  pest or weed control at 560 g/ha: 97%
[6]
  TGA Data (rate of weight loss, volatility): 0.05 µg/min
[7]; 168 h
  pest or weed control at 280 g/ha: 69%
  pest or weed control at 560 g/ha: 72%
[7]; 336 h
  pest or weed control at 280 g/ha: 83%
  pest or weed control at 560 g/ha: 87%
[7]; 504 h
  pest or weed control at 280 g/ha: 89%
  pest or weed control at 560 g/ha: 93%

## O=C(COc1ccc(Cl)cc1Cl)Nc1nccs1 [Compound D24]
[1]; 168 h, 280 g ae/ha, 7 DAA
  pest or weed control at 280 g/ha: 80%
[1]; 168 h, 560 g ae/ha, 7 DAA
  pest or weed control at 560 g/ha: 85%
[1]; 336 h, 280 g ae/ha, 14 DAA
  pest or weed control at 280 g/ha: 87.5%
[1]; 336 h, 560 g ae/ha, 14 DAA
  pest or weed control at 560 g/ha: 85%
[1]; 504 h, 280 g ae/ha, 21 DAA
  pest or weed control at 280 g/ha: 77.5%
[1]; 504 h, 560 g ae/ha, 21 DAA
  pest or weed control at 560 g/ha: 92.5%
[2]; 168 h, 280 g ae/ha, 7 DAA
  pest or weed control at 280 g/ha: 77.5%
[2]; 168 h, 560 g ae/ha, 7 DAA
  pest or weed control at 560 g/ha: 67.5%
[2]; 336 h, 280 g ae/ha, 14 DAA
  pest or weed control at 280 g/ha: 80%
[2]; 336 h, 560 g ae/ha, 14 DAA
  pest or weed control at 560 g/ha: 92.5%
[2]; 504 h, 280 g ae/ha, 21 DAA
  pest or weed control at 280 g/ha: 100%
[2]; 504 h, 560 g ae/ha, 21 DAA
  pest or weed control at 560 g/ha: 100%
[3]; 168 h, 280 g ae/ha, 7 DAA
  pest or weed control at 280 g/ha: 40%
[3]; 168 h, 560 g ae/ha, 7 DAA
  pest or weed control at 560 g/ha: 47.5%
[3]; 336 h, 280 g ae/ha, 14 DAA
  pest or weed control at 280 g/ha: 55%
[3]; 336 h, 560 g ae/ha, 14 DAA
  pest or weed control at 560 g/ha: 65%
[3]; 504 h, 280 g ae/ha, 21 DAA
  pest or weed control at 280 g/ha: 70%
[3]; 504 h, 560 g ae/ha, 21 DAA
  pest or weed control at 560 g/ha: 70%
[4]; 168 h, 280 g ae/ha, 7 DAA
  pest or weed control at 280 g/ha: 82.5%
[4]; 168 h, 560 g ae/ha, 7 DAA
  pest or weed control at 560 g/ha: 75%
[4]; 336 h, 280 g ae/ha, 14 DAA
  pest or weed control at 280 g/ha: 90%
[4]; 336 h, 560 g ae/ha, 14 DAA
  pest or weed control at 560 g/ha: 92.5%
[4]; 504 h, 280 g ae/ha, 21 DAA
  pest or weed control at 280 g/ha: 90%
[4]; 504 h, 560 g ae/ha, 21 DAA
  pest or weed control at 560 g/ha: 95%
[5]; 168 h, 280 g ae/ha, 7 DAA
  pest or weed control at 280 g/ha: 70%
[5]; 168 h, 560 g ae/ha, 7 DAA
  pest or weed control at 560 g/ha: 75%
[5]; 336 h, 280 g ae/ha, 14 DAA
  pest or weed control at 280 g/ha: 95%
[5]; 336 h, 560 g ae/ha, 14 DAA
  pest or weed control at 560 g/ha: 87.5%
[5]; 504 h, 280 g ae/ha, 21 DAA
  pest or weed control at 280 g/ha: 97.5%
[5]; 504 h, 560 g ae/ha, 21 DAA
  pest or weed control at 560 g/ha: 99.5%
[6]
  TGA Data (rate of weight loss, volatility): 0.08298 µg/min
[7]; 168 h, 280 g ae/ha, 7 DAA
  pest or weed control at 280 g/ha: 70%
[7]; 168 h, 560 g ae/ha, 7 DAA
  pest or weed control at 560 g/ha: 70%
[7]; 336 h, 280 g ae/ha, 14 DAA
  pest or weed control at 280 g/ha: 81.5%
[7]; 336 h, 560 g ae/ha, 14 DAA
  pest or weed control at 560 g/ha: 84.5%
[7]; 504 h, 280 g ae/ha, 21 DAA
  pest or weed control at 280 g/ha: 87%
[7]; 504 h, 560 g ae/ha, 21 DAA
  pest or weed control at 560 g/ha: 91.4%

## Cc1nccc(NC(=O)COc2ccc(Cl)cc2Cl)c1C [Compound D26]
[1]; 168 h, 280 g ae/ha, 7 DAA
  pest or weed control at 280 g/ha: 72.5%
[1]; 168 h, 560 g ae/ha, 7 DAA
  pest or weed control at 560 g/ha: 85%
[1]; 336 h, 280 g ae/ha, 14 DAA
  pest or weed control at 280 g/ha: 88.5%
[1]; 336 h, 560 g ae/ha, 14 DAA
  pest or weed control at 560 g/ha: 87.5%
[1]; 504 h, 280 g ae/ha, 21 DAA
  pest or weed control at 280 g/ha: 75%
[1]; 504 h, 560 g ae/ha, 21 DAA
  pest or weed control at 560 g/ha: 87.5%
[2]; 168 h, 280 g ae/ha, 7 DAA
  pest or weed control at 280 g/ha: 75%
[2]; 168 h, 560 g ae/ha, 7 DAA
  pest or weed control at 560 g/ha: 90%
[2]; 336 h, 280 g ae/ha, 14 DAA
  pest or weed control at 280 g/ha: 70%
[2]; 336 h, 560 g ae/ha, 14 DAA
  pest or weed control at 560 g/ha: 85%
[2]; 504 h, 280 g ae/ha, 21 DAA
  pest or weed control at 280 g/ha: 100%
[2]; 504 h, 560 g ae/ha, 21 DAA
  pest or weed control at 560 g/ha: 100%
[3]; 168 h, 280 g ae/ha, 7 DAA
  pest or weed control at 280 g/ha: 42.5%
[3]; 168 h, 560 g ae/ha, 7 DAA
  pest or weed control at 560 g/ha: 55%
[3]; 336 h, 280 g ae/ha, 14 DAA
  pest or weed control at 280 g/ha: 52.5%
[3]; 336 h, 560 g ae/ha, 14 DAA
  pest or weed control at 560 g/ha: 65%
[3]; 504 h, 280 g ae/ha, 21 DAA
  pest or weed control at 280 g/ha: 62.5%
[3]; 504 h, 560 g ae/ha, 21 DAA
  pest or weed control at 560 g/ha: 70%
[4]; 168 h, 280 g ae/ha, 7 DAA
  pest or weed control at 280 g/ha: 75%
[4]; 168 h, 560 g ae/ha, 7 DAA
  pest or weed control at 560 g/ha: 77.5%
[4]; 336 h, 280 g ae/ha, 14 DAA
  pest or weed control at 280 g/ha: 85%
[4]; 336 h, 560 g ae/ha, 14 DAA
  pest or weed control at 560 g/ha: 77.5%
[4]; 504 h, 280 g ae/ha, 21 DAA
  pest or weed control at 280 g/ha: 92.5%
[4]; 504 h, 560 g ae/ha, 21 DAA
  pest or weed control at 560 g/ha: 95%
[5]; 168 h, 280 g ae/ha, 7 DAA
  pest or weed control at 280 g/ha: 57.5%
[5]; 168 h, 560 g ae/ha, 7 DAA
  pest or weed control at 560 g/ha: 60%
[5]; 336 h, 280 g ae/ha, 14 DAA
  pest or weed control at 280 g/ha: 91.5%
[5]; 336 h, 560 g ae/ha, 14 DAA
  pest or weed control at 560 g/ha: 100%
[5]; 504 h, 280 g ae/ha, 21 DAA
  pest or weed control at 280 g/ha: 62.5%
[5]; 504 h, 560 g ae/ha, 21 DAA
  pest or weed control at 560 g/ha: 72.5%
[6]
  TGA Data (rate of weight loss, volatility): 0.09713 µg/min
[7]; 168 h, 280 g ae/ha, 7 DAA
  pest or weed control at 280 g/ha: 64.5%
[7]; 168 h, 560 g ae/ha, 7 DAA
  pest or weed control at 560 g/ha: 73.5%
[7]; 336 h, 280 g ae/ha, 14 DAA
  pest or weed control at 280 g/ha: 77.5%
[7]; 336 h, 560 g ae/ha, 14 DAA
  pest or weed control at 560 g/ha: 83%
[7]; 504 h, 280 g ae/ha, 21 DAA
  pest or weed control at 280 g/ha: 78.5%
[7]; 504 h, 560 g ae/ha, 21 DAA
  pest or weed control at 560 g/ha: 85%

— patent US20260042731A1, “(2,4-DICHLOROPHENOXY)ACETIC ACID ANALOGS” (CORTEVA AGRISCIENCE LLC, priority 2022, published 2026)
